The source of these data is ChEMBL document CHEMBL1122772, “Bis(3,5-diisopropylsalicylato)copper(II), a potent radioprotectant with superoxide dismutase mimetic activity” (J Med Chem, 1984).

What all share (assay type): functional, organism-based
The species entered for test [1] is Mus musculus. Kind of test: Rate of diffusion-controlled disproportionation of superoxide.
For test [2], the species on record is Mus musculus. In words: Concentration required for 50% inhibition of superoxide reduction of nitroblue tetrazolium.
Test [3] is filed under the species Mus musculus. Kind of test: Percent reactivity in disproportionating diffusion controlled disproportionation of superoxide.

Consider bis(2-Hydroxy-benzoic acid)copper(II), for which the Rate in the test filed under Mus musculus [1] came to 1.6e+09 M⁻¹ s⁻¹. The substance also gave a Concentration in the test filed under Mus musculus [2] of 4.6 µM. The same substance registered a Reactivity in the test listed under Mus musculus [3] of 0.65%.
As for “bis(2-Hydroxy-3,5-diisopropyl-benzoic acid)copper(II)(bis(3,5-diisopropylsalicylato)copper(II))”, the Rate in the test filed under Mus musculus [1] stood at 2e+09 M⁻¹ s⁻¹. This substance showed a Concentration in the test listed under Mus musculus [2] of 2.9 µM. This substance displayed a Reactivity in the test filed under Mus musculus [3] of 0.7%.
